{
  "source": "patent US20060241174A1",
  "about": "“Vitamin E tocotrienols inhibition of intracellularly obligate pathogen Chlamydia and methods of use” (priority 2005, published 2006)",
  "key": {"[1]": {"tested_on": "Chlamydia", "assay": "Detection of Chlamydia-infected white blood cells in hyperlipidemic patients with delta-tocotrienol supplementation", "assay_type": "in vivo, human", "description": "FIG. 6 illustrates detection and quantification of Chlamydia-infected white blood cells in hyperlipidemic patients with delta-tocotrienol supplementation. Buffy coats of hyperlipidemic patients were immunostained, and for each sample, aliquots of 10,000 cells were assessed. A dotplot of a hyperlipidemic patient prior to supplementation with delta-tocotrienol is shown in the left panel, and a dotplot of a hyperlipidemic patient after 2 months of delta-tocotrienol supplementation (100 mg/day) is shown in the right panel.\nFlow Cytometry Assessment of WBC: Flow cytometry (FC) quantification of Chlamydia-infected peripheral WBC used PBS rinsed buffy coat (BC) from HP samples. The BC cells were fixed and permeabilized (1% paraformaldehyde and 1% Triton X-100, 10 min. at RT; Aldrich Chemical Company, Inc., Milwaukee, Wis.). BCs were separately incubated for 1 hour with a 1:200 dilution of rabbit anti-Chlamydia primary antibody (Biodesign International, Saco, Me.) followed by a 1 hour incubation with a 1:150 dilution of FITC-conjugated goat anti-rabbit IgG (H+L) (Jackson ImmunoResearch, West Grove, Pa.), PBS rinsed X3, and mono-dispersed by passage through a nylon mesh filter (Lab-Line Instruments Inc, Melrose Park, Ill.). Sufficient WBCs were added to obtain 10,000 cells/tube and samples were analyzed for carriage of Chlamydia-infected cells by FACScan (Becton, Dickinson and Company, Franklin Lakes, N.J.).\nDetection of Chlamydia-Infected White Blood Cells (WBC): Smears of whole blood from each 10 ml hyperlipidemic HP blood sample, average donor age 54 years, were fixed with 70% MEOH for subsequent staining. Immunostaining used a 1:125 dilution of rabbit polyclonal anti-Chlamydia EB antibody followed by a 1:125 dilution of TRITC-conjugated goat anti-rabbit antibody (H+L) (Jackson ImmunoResearch, West Grove, Pa.). Slides were incubated at room temperature for 1 hour with each diluted antibody, rinsed, mounted and sealed as described above. Digital images of optical sections through these samples were acquired with a Zeiss LSM 510 Meta Confocal System.\nIn a clinical study, buffy coats from blood samples drawn both before and after delta-tocotrienol supplementation were immunostained for detection of Chlamydia-infected cells. The samples were tested for LDL levels both before and after delta-tocotrienol supplementation."}, "[2]": {"tested_on": "tumors", "conditions": "background statement, no source given; cited from earlier work"}},
  "data": [
    {"substance": "delta tocotrienol", "values": [
      {"measurement": "Chlamydial Infection Status after Delta-Tocotrienol Supplementation", "setting": "[1]; Patient 1, status before: negative", "value": "negative"},
      {"measurement": "Chlamydial Infection Status after Delta-Tocotrienol Supplementation", "setting": "[1]; Patient 2, status before: positive", "value": "negative"},
      {"measurement": "Chlamydial Infection Status after Delta-Tocotrienol Supplementation", "setting": "[1]; Patient 3, status before: strong positive", "value": "negative"},
      {"measurement": "Chlamydia-infected white blood cells by flow cytometry (FIG. 6)", "setting": "[1]; hyperlipidemic patient, 2 months supplementation, 100 mg/day, buffy coat, 10,000 cells", "value": "reduced the granularity and amount of Chlamydia-infected cells"},
      {"measurement": "reduction of tumors", "setting": "[2]", "value": "≤ 70", "unit": "%"}
    ]}
  ]
}
